# Laboratory results as given in ChEMBL document CHEMBL4715829, “Heterodimeric Rifampicin-Tobramycin conjugates break intrinsic resistance of Pseudomonas aeruginosa to doxycycline and chloramphenicol in vitro and in a Galleria mellonella in vivo model” (Eur J Med Chem, 2019).
# Legend:
# Pseudomonas aeruginosa [1] = experiment: Antibacterial activity against gentamicin-resistant Pseudomonas aeruginosa CAN-ICU 62308 assessed as reduction in bacterial growth incubated for 18 hrs by broth microdilution assay; format: functional
# Pseudomonas aeruginosa [2] = experiment: Antibacterial activity against Pseudomonas aeruginosa 100036 assessed as fractional inhibitory concentration index in presence of chloramphenicol incubated for 18 hrs by broth microdilution assay; format: functional
# Pseudomonas aeruginosa [3] = experiment: Antibacterial activity against Pseudomonas aeruginosa PAO1 assessed as fractional inhibitory concentration index in presence of Rifampicin incubated for 18 hrs by broth microdilution assay based checkerboard assay; format: functional
# Pseudomonas aeruginosa [4] = experiment: Antibacterial activity against Pseudomonas aeruginosa PAO1 assessed as fractional inhibitory concentration index in presence of Moxifloxacin incubated for 18 hrs by broth microdilution assay based checkerboard assay; format: functional
# Pseudomonas aeruginosa [5] = experiment: Antibacterial activity against Pseudomonas aeruginosa 91433 assessed as fractional inhibitory concentration index in presence of doxycycline incubated for 18 hrs by broth microdilution assay; format: functional
# Pseudomonas aeruginosa [6] = experiment: Antibacterial activity against Pseudomonas aeruginosa PAO1 assessed as fractional inhibitory concentration index in presence of Doxycycline incubated for 18 hrs by broth microdilution assay based checkerboard assay; format: functional
# Pseudomonas aeruginosa [7] = experiment: Antibacterial activity against Pseudomonas aeruginosa 100036 assessed as reduction in bacterial growth incubated for 18 hrs by broth microdilution assay; format: functional
# Pseudomonas aeruginosa [8] = experiment: Antibacterial activity against Pseudomonas aeruginosa PAO1 assessed as reduction in bacterial growth by measuring linezolid MIC at <=10 uM in presence of linezolid incubated for 18 hrs by broth microdilution assay based checkerboard assay (reference value: 1024 microg/ml); format: functional; settings: dose microM <=10
# Pseudomonas aeruginosa [9] = experiment: Antibacterial activity against gentamicin, tobramycin-resistant Pseudomonas aeruginosa CANWARD 96846 assessed as reduction in bacterial growth incubated for 18 hrs by broth microdilution assay; format: functional
# [10] = Cytotoxicity against human HEK293 cells assessed as cell viability at 50 uM incubated for 48 hrs by prestoblue assay; format: cell-based; settings: read-out: Activity
# Pseudomonas aeruginosa [11] = experiment: Antibacterial activity against Pseudomonas aeruginosa PAO1 assessed as reduction in bacterial growth by measuring doxycycline MIC at <=[…] uM in presence of doxycycline incubated for 18 hrs by broth microdilution assay based checkerboard assay (reference value: […] microg/ml); format: functional; settings: dose microM <=10
# Acinetobacter baumannii = experiment: Antibacterial activity against Acinetobacter baumannii CAN-ICU 63169 assessed as reduction in bacterial growth incubated for 18 hrs by broth microdilution assay; format: functional
# Pseudomonas aeruginosa [12] = experiment: Antibacterial activity against Pseudomonas aeruginosa PAO1 assessed as fractional inhibitory concentration index in presence of Ceftazidime incubated for 18 hrs by broth microdilution assay based checkerboard assay; format: functional
# Escherichia coli [13] = experiment: Antibacterial activity against gentamicin-resistant Escherichia coli CAN-ICU 61714 assessed as reduction in bacterial growth incubated for 18 hrs by broth microdilution assay; format: functional
# Pseudomonas aeruginosa [14] = experiment: Antibacterial activity against Pseudomonas aeruginosa PAO1 assessed as reduction in bacterial growth by measuring meropenem MIC at <=10 uM in presence of meropenem incubated for 18 hrs by broth microdilution assay based checkerboard assay (reference value: 1 microg/ml); format: functional; settings: dose microM <=10
# Pseudomonas aeruginosa [15] = experiment: Antibacterial activity against Pseudomonas aeruginosa PAO1 assessed as reduction in bacterial growth by measuring tigecycline MIC at <=10 uM in presence of tigecycline incubated for 18 hrs by broth microdilution assay based checkerboard assay (reference value: 4 microg/ml); format: functional; settings: dose microM <=10
# Pseudomonas aeruginosa [16] = experiment: Antibacterial activity against Pseudomonas aeruginosa 264-101354 assessed as fractional inhibitory concentration index in presence of chloramphenicol incubated for 18 hrs by broth microdilution assay; format: functional
# Escherichia coli [17] = experiment: Antibacterial activity against gentamicin, tobramycin, ciprofloxacin-resistant Escherichia coli ATCC 97615 harboring aac(3')IIa gene assessed as reduction in bacterial growth incubated for 18 hrs by broth microdilution assay; format: functional
# Pseudomonas aeruginosa [18] = experiment: Antibacterial activity against Pseudomonas aeruginosa 260-97103 assessed as fractional inhibitory concentration index in presence of chloramphenicol incubated for 18 hrs by broth microdilution assay; format: functional
# Pseudomonas aeruginosa [19] = experiment: Antibacterial activity against Pseudomonas aeruginosa PAO1 assessed as fractional inhibitory concentration index in presence of Trimethoprim incubated for 18 hrs by broth microdilution assay based checkerboard assay; format: functional
# Pseudomonas aeruginosa [20] = experiment: Antibacterial activity against Pseudomonas aeruginosa 91433 assessed as reduction in bacterial growth incubated for 18 hrs by broth microdilution assay; format: functional
# Pseudomonas aeruginosa [21] = experiment: Antibacterial activity against Pseudomonas aeruginosa PAO1 assessed as fractional inhibitory concentration index in presence of Minocycline incubated for 18 hrs by broth microdilution assay based checkerboard assay; format: functional
# [22] = Cytotoxicity against human HepG2 cells assessed as cell viability at <10 uM incubated for 48 hrs prestoblue assay; format: cell-based; settings: read-out: Activity
# Pseudomonas aeruginosa [23] = experiment: Antibacterial activity against Pseudomonas aeruginosa 262-101856 assessed as fractional inhibitory concentration index in presence of doxycycline incubated for 18 hrs by broth microdilution assay; format: functional
# Pseudomonas aeruginosa [24] = experiment: Antibacterial activity against Pseudomonas aeruginosa PAO1 assessed as fractional inhibitory concentration index in presence of Nitrofurantoin incubated for 18 hrs by broth microdilution assay based checkerboard assay; format: functional
# Pseudomonas aeruginosa [25] = experiment: Antibacterial activity against Pseudomonas aeruginosa PAO1 assessed as reduction in bacterial growth by measuring vancomycin MIC at <=10 uM in presence of vancomycin incubated for 18 hrs by broth microdilution assay based checkerboard assay (reference value: 256 microg/ml); format: functional; settings: dose microM <=10
# Pseudomonas aeruginosa [26] = experiment: Antibacterial activity against Pseudomonas aeruginosa PAO1 assessed as reduction in bacterial growth by measuring aztreonam MIC at <=10 uM in presence of aztreonam incubated for 18 hrs by broth microdilution assay based checkerboard assay (reference value: 4 microg/ml); format: functional; settings: dose microM <=10
# Pseudomonas aeruginosa [27] = experiment: Antibacterial activity against Pseudomonas aeruginosa PAO1 assessed as fractional inhibitory concentration index in presence of Cefotaxime incubated for 18 hrs by broth microdilution assay based checkerboard assay; format: functional
# Pseudomonas aeruginosa [28] = experiment: Antibacterial activity against Pseudomonas aeruginosa PAO1 assessed as reduction in bacterial growth by measuring rifampicin MIC at <=[…] uM in presence of rifampicin incubated for 18 hrs by broth microdilution assay based checkerboard assay (reference value: […] microg/ml); format: functional; settings: dose microM <=10
# Pseudomonas aeruginosa [29] = experiment: Antibacterial activity against Pseudomonas aeruginosa PAO1 assessed as fractional inhibitory concentration index in presence of Aztreonam incubated for 18 hrs by broth microdilution assay based checkerboard assay; format: functional
# Enterococcus faecalis = experiment: Antibacterial activity against Enterococcus faecalis ATCC 29212 assessed as reduction in bacterial growth incubated for 18 hrs by broth microdilution assay; format: functional
# Pseudomonas aeruginosa [30] = experiment: Antibacterial activity against Pseudomonas aeruginosa PAO1 assessed as fractional inhibitory concentration index in presence of Novobiocin incubated for 18 hrs by broth microdilution assay based checkerboard assay; format: functional
# [31] = system: Staphylococcus epidermidis; experiment: Antibacterial activity against methicillin-susceptible Staphylococcus epidermidis CANWARD 81388 assessed as reduction in bacterial growth incubated for 18 hrs by broth microdilution assay; format: functional
# Pseudomonas aeruginosa [32] = experiment: Antibacterial activity against Pseudomonas aeruginosa 101885 assessed as reduction in bacterial growth incubated for 18 hrs by broth microdilution assay; format: functional
# Pseudomonas aeruginosa [33] = experiment: Antibacterial activity against Pseudomonas aeruginosa PAO1 assessed as reduction in bacterial growth by measuring novobiocin MIC at <=10 uM in presence of novobiocin incubated for 18 hrs by broth microdilution assay based checkerboard assay (reference value: 512 microg/ml); format: functional; settings: dose microM <=10
# Staphylococcus aureus = experiment: Antibacterial activity against Staphylococcus aureus ATCC 29213 assessed as reduction in bacterial growth incubated for 18 hrs by broth microdilution assay; format: functional
smiles,measurement,setting,value
CO[C@H]1/C=C/O[C@@]2(C)Oc3c(C)c(O)c4c(O)c(c(/C=N/N5CCN(Cc6cn(CCCCCCO[C@@H]7[C@@H](O[C@H]8O[C@H](CO)[C@@H](O)[C@H](N)[C@H]8O)[C@H](N)C[C@H](N)[C@H]7O[C@H]7O[C@H](CN)[C@@H](O)C[C@H]7N)nn6)CC5)c(O)c4c3C2=O)NC(=O)/C(C)=C\C=C\[C@H](C)[C@H](O)[C@@H](C)[C@@H](O)[C@@H](C)[C@H](OC(C)=O)[C@@H]1C.Cl.Cl.Cl.Cl.Cl,MIC,Pseudomonas aeruginosa [1],> 32 µg/mL
same,fractional inhibitory concentration index (FICI),Pseudomonas aeruginosa [2],0.066
same,fractional inhibitory concentration index (FICI),Pseudomonas aeruginosa [3],0.28
same,fractional inhibitory concentration index (FICI),Pseudomonas aeruginosa [4],0.53
same,fractional inhibitory concentration index (FICI),Pseudomonas aeruginosa [5],0.25
same,fractional inhibitory concentration index (FICI),Pseudomonas aeruginosa [6],0.06
same,MIC,Pseudomonas aeruginosa [7],256 µg/mL
same,MIC,Pseudomonas aeruginosa [8],128 µg/mL
same,MIC,Pseudomonas aeruginosa [9],> 32 µg/mL
same,"viability at 48 h, 50 µM",[10],> 70%
same,MIC,Pseudomonas aeruginosa [11],0.5 µg/mL
same,MIC,Acinetobacter baumannii,> 32 µg/mL
same,fractional inhibitory concentration index (FICI),Pseudomonas aeruginosa [12],1.03
same,MIC,Escherichia coli [13],> 32 µg/mL
same,MIC,Pseudomonas aeruginosa [14],1 µg/mL
same,MIC,Pseudomonas aeruginosa [15],2 µg/mL
same,fractional inhibitory concentration index (FICI),Pseudomonas aeruginosa [16],0.063
same,MIC,Escherichia coli [17],> 32 µg/mL
same,fractional inhibitory concentration index (FICI),Pseudomonas aeruginosa [18],<0.141
same,fractional inhibitory concentration index (FICI),Pseudomonas aeruginosa [19],0.53
same,MIC,Pseudomonas aeruginosa [20],> 128 µg/mL
same,fractional inhibitory concentration index (FICI),Pseudomonas aeruginosa [21],0.28
same,viability at 48 h,[22],> 90%
same,fractional inhibitory concentration index (FICI),Pseudomonas aeruginosa [23],<0.07
same,fractional inhibitory concentration index (FICI),Pseudomonas aeruginosa [24],0.53
same,MIC,Pseudomonas aeruginosa [25],256 µg/mL
same,MIC,Pseudomonas aeruginosa [26],4 µg/mL
same,fractional inhibitory concentration index (FICI),Pseudomonas aeruginosa [27],1.03
same,MIC,Pseudomonas aeruginosa [28],4 µg/mL
same,fractional inhibitory concentration index (FICI),Pseudomonas aeruginosa [29],1.03
same,MIC,Enterococcus faecalis,> 32 µg/mL
same,fractional inhibitory concentration index (FICI),Pseudomonas aeruginosa [30],0.28
same,MIC,[31],4 µg/mL
same,MIC,Pseudomonas aeruginosa [32],256 µg/mL
same,MIC,Pseudomonas aeruginosa [33],128 µg/mL
same,MIC,Staphylococcus aureus,16 µg/mL
NC[C@H]1O[C@H](O[C@H]2[C@H](O)[C@@H](O[C@H]3O[C@H](CO)[C@@H](O)[C@H](N)[C@H]3O)[C@H](N)C[C@@H]2N)[C@H](N)C[C@@H]1O [TOBRAMYCIN],MIC,Pseudomonas aeruginosa [1],16 µg/mL
same,fractional inhibitory concentration index (FICI),Pseudomonas aeruginosa [2],1.5
same,fractional inhibitory concentration index (FICI),Pseudomonas aeruginosa [5],1.5
same,MIC,Pseudomonas aeruginosa [7],128 µg/mL
same,MIC,Pseudomonas aeruginosa [9],256 µg/mL
same,MIC,Acinetobacter baumannii,32 µg/mL
same,MIC,Escherichia coli [13],8 µg/mL
same,fractional inhibitory concentration index (FICI),Pseudomonas aeruginosa [16],1
same,MIC,Escherichia coli [17],128 µg/mL
same,fractional inhibitory concentration index (FICI),Pseudomonas aeruginosa [18],1
same,MIC,Pseudomonas aeruginosa [20],16 µg/mL
same,fractional inhibitory concentration index (FICI),Pseudomonas aeruginosa [23],<=1.5
same,MIC,Enterococcus faecalis,8 µg/mL
same,MIC,[31],≤ 0.25 µg/mL
same,MIC,Pseudomonas aeruginosa [32],1 µg/mL
same,MIC,Staphylococcus aureus,0.5 µg/mL
